Measured values from PMC11094307, “Marine-derived EGFR inhibitors: novel compounds targeting breast cancer growth and drug resistance” (Frontiers in Pharmacology, 2024).

Assays:
[1] = molecular target: FAK (Homo sapiens, UniProt Q05397); test: Kinase profiling; format: biochemical; conditions: one of the other seven tyrosine kinases
Procedure: (§1) The experiments were conducted in accordance with the manufacturer’s guidelines (Promega). The procedure began with a kinase reaction, where 5 μL of 1× kinase buffer was utilized, and the mixture was incubated at room temperature for 60 min. This step was followed by the addition of 5 μL of ADP-Glo™ reagent to terminate the kinase reaction and to deplete any remaining ATP, with a subsequent incubation period of 40 min at room temperature. Next, 10 μL of kinase detection reagent was added to convert ADP back into ATP, and luciferase along with luciferin was introduced to facilitate ATP detection. This mixture was then incubated at room temperature for an additional 30 min. Detection was carried out using a BioTek Synergy4 instrument, and data analysis, including curve fitting and presentation, was performed using GraphPad Prism version 5.0.

[2] = molecular target: FGFR3 (Homo sapiens, UniProt P22607); test: Kinase profiling; format: biochemical; conditions: one of the other seven tyrosine kinases
Chain of FGFR3 (P22607 23-806): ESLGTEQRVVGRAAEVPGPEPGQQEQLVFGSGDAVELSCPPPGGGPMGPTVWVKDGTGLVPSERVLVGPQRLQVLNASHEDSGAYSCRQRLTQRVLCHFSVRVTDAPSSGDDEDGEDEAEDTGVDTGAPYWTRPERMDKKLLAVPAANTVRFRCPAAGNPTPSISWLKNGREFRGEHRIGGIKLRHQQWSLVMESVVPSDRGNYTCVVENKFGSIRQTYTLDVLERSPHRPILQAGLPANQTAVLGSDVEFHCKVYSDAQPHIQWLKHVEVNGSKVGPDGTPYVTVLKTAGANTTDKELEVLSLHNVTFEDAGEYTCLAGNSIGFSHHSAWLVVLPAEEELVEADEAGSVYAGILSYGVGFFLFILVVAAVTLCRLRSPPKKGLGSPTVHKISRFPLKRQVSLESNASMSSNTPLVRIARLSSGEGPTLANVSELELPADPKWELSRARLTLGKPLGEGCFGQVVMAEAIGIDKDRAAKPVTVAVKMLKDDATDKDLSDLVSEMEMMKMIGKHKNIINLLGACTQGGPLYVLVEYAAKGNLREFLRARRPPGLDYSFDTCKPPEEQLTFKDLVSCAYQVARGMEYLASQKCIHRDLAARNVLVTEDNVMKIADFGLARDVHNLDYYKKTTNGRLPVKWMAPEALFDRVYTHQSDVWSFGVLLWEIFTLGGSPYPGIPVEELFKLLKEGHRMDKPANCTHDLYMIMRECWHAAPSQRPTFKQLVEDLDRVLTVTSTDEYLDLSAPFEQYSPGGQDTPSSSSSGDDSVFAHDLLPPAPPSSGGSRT
Procedure: as §1

[3] = molecular target: FLT1 (Homo sapiens, UniProt P17948); test: Kinase profiling; format: biochemical; conditions: one of the other seven tyrosine kinases
Procedure: as §1

[4] = molecular target: FGFR1 (Homo sapiens, UniProt P11362); test: Kinase profiling; format: biochemical; conditions: one of the other seven tyrosine kinases
Procedure: as §1

[5] = molecular target: ABL (Homo sapiens, UniProt P00519); test: Kinase profiling; format: biochemical; conditions: one of the other seven tyrosine kinases
Chain of ABL (P00519 whole entry): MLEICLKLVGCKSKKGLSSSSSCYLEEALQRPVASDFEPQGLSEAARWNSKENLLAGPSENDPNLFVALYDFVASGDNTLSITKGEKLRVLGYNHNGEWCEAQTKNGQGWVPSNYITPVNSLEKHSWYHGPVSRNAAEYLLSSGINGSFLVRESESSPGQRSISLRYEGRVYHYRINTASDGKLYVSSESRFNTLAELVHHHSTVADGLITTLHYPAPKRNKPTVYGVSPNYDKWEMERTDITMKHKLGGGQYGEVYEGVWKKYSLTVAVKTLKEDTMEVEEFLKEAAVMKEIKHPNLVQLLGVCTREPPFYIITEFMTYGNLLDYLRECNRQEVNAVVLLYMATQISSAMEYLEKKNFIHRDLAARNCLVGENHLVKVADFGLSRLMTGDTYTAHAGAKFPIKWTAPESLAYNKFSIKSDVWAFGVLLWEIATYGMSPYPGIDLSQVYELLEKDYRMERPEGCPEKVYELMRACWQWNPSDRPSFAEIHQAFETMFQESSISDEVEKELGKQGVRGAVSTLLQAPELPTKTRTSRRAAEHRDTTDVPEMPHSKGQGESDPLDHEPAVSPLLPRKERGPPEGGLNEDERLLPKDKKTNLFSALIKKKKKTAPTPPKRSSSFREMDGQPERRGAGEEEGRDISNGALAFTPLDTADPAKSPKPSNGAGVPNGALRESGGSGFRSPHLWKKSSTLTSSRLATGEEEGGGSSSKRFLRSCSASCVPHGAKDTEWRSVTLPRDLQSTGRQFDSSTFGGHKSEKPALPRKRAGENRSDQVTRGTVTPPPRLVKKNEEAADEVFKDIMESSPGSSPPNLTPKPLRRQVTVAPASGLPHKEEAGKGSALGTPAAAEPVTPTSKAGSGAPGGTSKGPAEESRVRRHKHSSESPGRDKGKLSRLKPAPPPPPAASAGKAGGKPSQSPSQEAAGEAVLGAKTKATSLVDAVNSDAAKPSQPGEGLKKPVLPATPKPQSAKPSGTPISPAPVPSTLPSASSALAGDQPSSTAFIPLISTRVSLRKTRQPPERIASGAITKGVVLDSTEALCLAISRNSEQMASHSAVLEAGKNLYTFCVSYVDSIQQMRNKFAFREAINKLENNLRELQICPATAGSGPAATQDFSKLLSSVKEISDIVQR
Procedure: as §1

[6] = molecular target: ECK (Homo sapiens, UniProt P29317); test: Kinase profiling; format: biochemical; conditions: one of the other seven tyrosine kinases
Procedure: as §1

[7] = molecular target: T1, EGFR (Homo sapiens, UniProt P00533); test: CETSA in MCF-7 cells; format: cell-based; conditions: for CETSA WB Normalized (Figure 3F): control 0 µM 0.614197892
T1 construct: endogenous in cells; host or cells: MCF-7
T1 sequence (P00533 25-1210): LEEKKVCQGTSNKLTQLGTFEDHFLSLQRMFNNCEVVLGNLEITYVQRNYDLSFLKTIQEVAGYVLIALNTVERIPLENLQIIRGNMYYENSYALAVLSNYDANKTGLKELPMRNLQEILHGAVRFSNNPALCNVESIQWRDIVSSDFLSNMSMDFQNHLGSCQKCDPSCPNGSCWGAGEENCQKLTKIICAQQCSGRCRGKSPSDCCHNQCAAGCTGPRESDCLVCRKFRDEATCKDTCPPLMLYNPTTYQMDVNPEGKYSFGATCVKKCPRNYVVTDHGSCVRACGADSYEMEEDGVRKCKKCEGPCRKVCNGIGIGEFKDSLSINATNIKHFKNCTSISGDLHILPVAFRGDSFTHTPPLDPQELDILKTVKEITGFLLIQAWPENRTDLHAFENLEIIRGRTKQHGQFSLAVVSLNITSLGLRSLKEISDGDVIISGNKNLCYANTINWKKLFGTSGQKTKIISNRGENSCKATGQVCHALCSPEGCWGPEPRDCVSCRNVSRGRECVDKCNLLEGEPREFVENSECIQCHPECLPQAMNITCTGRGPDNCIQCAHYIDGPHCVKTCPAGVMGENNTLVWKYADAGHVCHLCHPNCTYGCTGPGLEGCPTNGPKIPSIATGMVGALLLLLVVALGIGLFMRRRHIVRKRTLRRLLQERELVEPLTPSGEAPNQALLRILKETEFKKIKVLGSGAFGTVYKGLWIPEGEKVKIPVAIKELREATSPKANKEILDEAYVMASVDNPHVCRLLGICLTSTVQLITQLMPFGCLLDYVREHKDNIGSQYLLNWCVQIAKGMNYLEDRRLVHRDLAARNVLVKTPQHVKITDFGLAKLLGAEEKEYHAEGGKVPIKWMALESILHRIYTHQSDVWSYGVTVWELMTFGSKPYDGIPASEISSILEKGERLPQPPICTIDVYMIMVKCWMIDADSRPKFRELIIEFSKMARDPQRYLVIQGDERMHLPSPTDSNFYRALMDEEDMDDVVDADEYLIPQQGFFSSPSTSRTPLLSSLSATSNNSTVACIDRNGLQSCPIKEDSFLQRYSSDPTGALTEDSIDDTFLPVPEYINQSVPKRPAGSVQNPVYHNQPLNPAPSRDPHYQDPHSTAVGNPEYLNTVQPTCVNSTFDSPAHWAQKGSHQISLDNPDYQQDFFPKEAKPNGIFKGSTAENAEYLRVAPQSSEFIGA
Procedure: In the CETSA, MCF-7 cells were treated with varying concentrations of Tandyukisin (5, 10, 20 µM) or a control solution of 0.2% DMSO for 24 h. Following treatment, cells were harvested and washed with PBS to eliminate any residual drug, then an equal number of cells were allocated into 0.2 mL PCR tubes. These cells were resuspended in 100 µL PBS supplemented with a complete protease inhibitor cocktail and subjected to a heating step at […] for 3 min. Post-heating, the cells underwent lysis through three cycles of freeze-thaw using liquid nitrogen, followed by centrifugation at 12,000g for 20 min at 4°C to separate the lysate. The clarified supernatant from each tube was then carefully transferred to fresh tubes for Western blotting.
To confirm Tandyukisin directly bound EGFR in cells, CETSA was conducted. Currently, CETSA is widely used in drug target discovery assay and is based on the thermal stability changes after drugs bind to their targets ([Martinez Molina et al., 2013]; [Jafari et al., 2014]). After treatment with Tandyukisin at 5, 10, 20 μM for 24 h, the multiple aliquots of the cell suspension were heated at 55°C. The heated cells were subsequently lysed and centrifuged to separate soluble fractions from precipitated denatured EGFR. After thermal denaturation, EGFR in the soluble fraction was examined by Western blotting.

[8] = system: HL-60 cells; test: MTT assay, HL-60; format: cell-based, human; conditions: HL-60 (low EGFR-expressing), 10 μM
Procedure: The cell lines MCF-7 and A431 were cultured in Dulbecco’s Modified Eagle’s Medium (DMEM, Gibco, USA), while HL-60, H1299, and A549 cells were maintained in RPMI-1640 medium (Gibco, USA). Both mediums were enriched with 10% fetal bovine serum and 1% penicillin/streptomycin. […] All cell cultures were incubated at 37°C in an atmosphere containing 5% CO2.
Cells in the exponential growth phase were seeded into 96-well plates and allowed to adhere overnight. Subsequently, they were treated in triplicate with various concentrations of the compounds (0, 1.56, 3.13, 6.25, 12.5, 25, 50, 100 µM), […]. After 24 h, 20 µL of Methyl-thiazolyldiphenyl-tetrazolium bromide (MTT, 5 mg/mL, Thermo Fisher Scientific) was added to each well and incubated for a minimum of 4 h. Following the incubation, the medium containing the compounds and MTT was removed from each well, and 200 µL of dimethyl sulfoxide (DMSO) was added. The plates were then shaken for 10 min at 37°C to dissolve the formazan crystals. The absorbance was measured using a microplate reader (BioTek Synergy 4) at a wavelength of 490 nm.

[9] = molecular target: EGFR intracellular kinase domain (Homo sapiens, UniProt P00533); test: SPR binding (Biacore 8K); design: the intracellular tyrosine kinase (TK) domain of EGFR, tagged with GST; purchased Sinobiological, China; conditions: without ATP
Chain of EGFR intracellular kinase domain (P00533 712-979 limits assumed): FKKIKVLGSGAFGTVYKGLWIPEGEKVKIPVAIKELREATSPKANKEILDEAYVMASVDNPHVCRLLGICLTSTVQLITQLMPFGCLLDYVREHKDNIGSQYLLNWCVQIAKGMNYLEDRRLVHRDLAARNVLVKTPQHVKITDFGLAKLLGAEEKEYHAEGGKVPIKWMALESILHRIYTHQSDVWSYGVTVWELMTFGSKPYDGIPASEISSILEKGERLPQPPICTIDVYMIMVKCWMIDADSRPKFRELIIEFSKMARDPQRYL
Description: The extracellular ligand-binding domain of EGFR, tagged with His, and the intracellular tyrosine kinase (TK) domain of EGFR, tagged with GST, were acquired from Sinobiological, China. Kinase assay systems for both wild-type EGFR and its mutants—T790M, L858R, and the dual L858R/T790M—were procured from Promega Corporation, USA. Cell lines including MCF-7, A549, A431, H1299, HL-60, and MCF-10A were obtained from the China Infrastructure Cell Line Resources.
The binding affinities of compounds towards EGFR extracellular ligand binding domain and EGFR intracellular kinase domain were assayed using the SPR-based Biacore 8K instrument (Cytiva). Considering the purchased EGFR was fused with GST tag, GST alone was also immobilized on the chip to do the binding measurement. All the proteins were respectively immobilized on a CM5 sensor chip by using standard amine-coupling at 25°C with running buffer HEPES-P (20 mM HEPES buffer, […], 0.05% surfactant P20, pH 7.4). A reference channel was only activated and blocked to eliminate compound unspecific binding to the surface of the chip. The immobilization level of EGFR extracellular ligand binding domain, EGFR intracellular kinase domain and GST were all about 10,000 RU. […] Extra wash with 50% DMSO was added to remove the last remaining sample in the pipeline.

Chain of FAK (Q05397 whole entry): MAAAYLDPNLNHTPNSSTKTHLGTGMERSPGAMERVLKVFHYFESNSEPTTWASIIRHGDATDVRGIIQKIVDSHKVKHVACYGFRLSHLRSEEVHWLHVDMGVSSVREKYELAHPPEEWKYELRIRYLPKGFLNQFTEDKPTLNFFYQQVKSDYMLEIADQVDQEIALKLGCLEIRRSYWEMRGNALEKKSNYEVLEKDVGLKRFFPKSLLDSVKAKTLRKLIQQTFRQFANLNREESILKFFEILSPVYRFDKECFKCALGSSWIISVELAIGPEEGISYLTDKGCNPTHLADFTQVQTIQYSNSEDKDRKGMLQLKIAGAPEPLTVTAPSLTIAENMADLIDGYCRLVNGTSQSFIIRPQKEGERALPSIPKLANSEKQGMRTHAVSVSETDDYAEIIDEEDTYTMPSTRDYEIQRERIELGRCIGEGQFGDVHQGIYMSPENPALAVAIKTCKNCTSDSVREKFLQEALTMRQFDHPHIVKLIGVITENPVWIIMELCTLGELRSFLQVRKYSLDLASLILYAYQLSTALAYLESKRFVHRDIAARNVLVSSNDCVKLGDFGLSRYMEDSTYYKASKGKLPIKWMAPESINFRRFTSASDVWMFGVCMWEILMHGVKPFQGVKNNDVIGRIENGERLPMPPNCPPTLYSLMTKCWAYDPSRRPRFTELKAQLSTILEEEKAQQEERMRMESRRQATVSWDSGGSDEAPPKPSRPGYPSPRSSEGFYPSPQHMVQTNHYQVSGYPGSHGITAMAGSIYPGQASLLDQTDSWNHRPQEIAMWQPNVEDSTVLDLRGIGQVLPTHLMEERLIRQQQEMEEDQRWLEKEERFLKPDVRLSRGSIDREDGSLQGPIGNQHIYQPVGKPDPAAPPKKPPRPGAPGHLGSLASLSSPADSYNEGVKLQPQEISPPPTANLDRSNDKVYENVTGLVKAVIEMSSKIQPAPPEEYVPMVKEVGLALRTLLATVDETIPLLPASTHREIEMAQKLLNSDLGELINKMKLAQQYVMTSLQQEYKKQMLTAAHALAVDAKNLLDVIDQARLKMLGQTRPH

COC(=O)C/C(C)=C/C(=O)O[C@@H]1C[C@@H](C)[C@H]2[C@@H](C=C[C@H](CC(C)C)[C@]2(C)C(=O)/C=C\O)[C@@H]1O [Tandyukisin] showed an IC50 [1] of over 100 µM, an IC50 [2] of over 100 µM and an IC50 [3] of over 100 µM. It also gave an IC50 [4] of over 100 µM, an IC50 [5] of over 100 µM and an IC50 [6] of over 100 µM. The “CETSA WB Gray Value (Figure 3F)” value ([7]; 5 µM) was 29078.924, the “CETSA WB Normalized (Figure 3F)” value ([7]; 5 µM) was 0.7019 and the “CETSA WB Gray Value (Figure 3F)” value ([7]; 10 µM) was 31150.702. The “CETSA WB Normalized (Figure 3F)” value ([7]; 10 µM) was 0.8063, the “CETSA WB Gray Value (Figure 3F)” value ([7]; 20 µM) was 42106.53 and the “CETSA WB Normalized (Figure 3F)” value ([7]; 20 µM) was 1.166. For the same compound, the “accumulation of EGFR in the soluble fraction (CETSA) compared with DMSO control” value ([7]; MCF-7, 5, 10, 20 μM, 24 h, heated) was “markable increase”, the cell lethality percentage [8] was 11.1% ± 1.2% and the Kd [9] was 5.57 µM. For the same compound, the kon ([9]; Figure 4A-B, read-out: ka, EGFR kinase domain) was 3050 M⁻¹ s⁻¹.
